From paper PMC7256013, “Preclinical evaluation of cationic DOTA-triarginine-lipid conjugates for theranostic liquid brachytherapy” (Nanotheranostics, 2020)
Residues, ends and D or L forms follow the SMILES beside them. *: point of attachment. DOTA = O=C(O)CN1CCN(CC(=O)O)CCN(CC(=O)*)CCN(CC(=O)O)CC1; Stearoyl = CCCCCCCCCCCCCCCCCC(=O)*; Palmitoyl = CCCCCCCCCCCCCCCC(=O)*

Key:
CT26 cells = test: Cytotoxicity, MTS assay; format: cell-based, murine; details: 4000 cells/well, 24 h incubation with compound, then 48 h without, absorbance 490 nm
Procedure: CT26 (murine colon carcinoma) was purchased from ATTC (Rockville) and cultured in DMEM medium supplemented with 10% fetal calf serum and pen-strep (Invitrogen Inc) at 37 °C and 5% CO2 in a humidified atmosphere. A commercial MTS assay was used to assess cytotoxicity. (Promega, CellTiter 96® AQueous One Solution Cell Proliferation Assay).
Cells were plated onto 96 well plates at a density of 4000 cells/well the day before the start of experiment. The original culture medium was replaced by medium containing increasing amounts of the indicated agents. After 24 h incubation with D3R-C16 or D3R-C18, the medium was removed and the cells were further incubated for another 48 hours. To measure metabolically active cells, 100 µL of MTS solution was added to the wells and incubated until sufficient amount of color was developed and within the linear range. The absorbance was measured at 490 nm using a microplate reader (Sunrise, Tecan).

[1] = Critical micelle concentration by surface tension measurement (Du Noüy); format: physicochemical; details: 0.49-250 µM
Procedure: An Ez-pi+ surface tensiometer, with dyneprobe (diameter: 0.51 mm) and polypropylene sample cuvettes were purchased from Kibron to measure the surface tension.
(§1) D3R-C16 or D3R-C18 was dispersed in ISO-HEPES-NaCl or ISO-HEPES-Sucrose for a final concentration of 250 μM as stock solutions. Sample series were prepared by diluting the stock solutions with ISO-HEPES-NaCl or ISO-HEPES-Sucrose into concentrations of 125, 62.5, 31.25, 15.63, 7.81, 3.91, 1.95, 0.98 and 0.49 μM. The surface tension of the sample was measured by the Du Noüy method with a platinum probe. For each sample, the measurements were repeated until three consecutive measurements varied with less than 1 mN/m between them. Based on the critical micelle concentration of D3R-C18, a micellar dispersion of D3R-C18 in ISO-HEPES-Sucrose (2.0 mM) was prepared. The zeta potential of the D3R-C18 micelles was measured on a Zetasizer (Malvern).

[2] = Micelle size (DLS) and zeta potential; format: physicochemical; details: for PDI of micelles / average size of micelles (Z-average): 2.0 mM in ISO-HEPES, DLS; for average size of micelles (Z-average): broad distribution
Procedure: Liposomes were prepared using a mini-extruder (Avanti Polar Lipids) or a LIPEX Thermobarrel Pressure Extruder (10 mL, Northern Lipids). The hydrodynamic size and zeta potential of liposomes were measured by dynamic light scattering (DLS) on a Zetasizer (Malvern). Intensity weighted lognormal mean sizes are reported, unless otherwise noted. Sizes were measured in ISO-HEPES-NaCl and zeta potentials were measured in ISO-HEPES-Sucrose. Lipid concentrations were measured by ICP-MS (Thermo Scientifc, iCAP Q) by quantifying the phosphorous content of liposome samples against an internal standard of gallium (10 ppb). Sephadex G-25 PD-10 columns (8.3 mL bed volume) were purchased from GE Healthcare.
as §1

[3] = Intratumoral distribution of radioactivity, voxel frequency distribution from PET
Procedure: (§2) Mice were injected intratumorally with ^64Cu-compounds in concentrations of 40 MBq/mL. During the scan procedures, mice were anaesthetized using 3-4 % sevoflurane (Abbott Scandinavia AB, Sweden) mixed with 35% O2 and 65% medical grade air and placed on heating pads. Two mice were positioned side-by-side, separated by a 6 mm polystyrene block for PET/CT imaging using Inveon® small animal PET/CT system with CT based PET image attenuation (Siemens Medical Systems, Malvern, PA, USA). The protocol included a 12-minute PET scan, followed by a CT scan. Mice were fixed on a bed inside the scanner with the syringe placed and the needle fixed centrally in the tumor and ready for injection. Upon initiation of the first scan, intratumoral injections were done manually over 30 seconds, to investigate the initial dynamics of the tracer diffusion. Following this, two further scans were included; at six hours (5 minutes scan time) and 24 hours (12 minutes scan time) after injection. Reconstruction of the PET scans were performed using maximum a posteriori (MAP) reconstruction algorithm (voxel size: 0.815 x 0.815 x 0.796 mm; resolution (FWHM) 1.2 mm). The injection scan was reconstructed in 4 x 30 second and 10 x 60 second time frames to observe the dynamics of tracer diffusion. The two last time points were reconstructed in a single time frame.
(§3) Image analysis was performed using commercially available Inveon software (Siemens Medical Systems, Malvern, PA, USA). Regions of interest (ROIs) were manually drawn based on the co-registered PET/CT images. The following ROIs were constructed; tumors (complete volume delineated), liver, spleen, kidney, bladder, and blood. Blood activity was estimated from a constructed ROI covering the left ventricular lumen of the heart. ROIs in the left ventricle and abdominal aorta were subsequently segmented to only include the voxels displaying above 80% of maximum activity with the original ROI. From the obtained uptake values all data was calculated into %ID/g for each organ and as %ID in tumors by adjusting for CT based tumor volume. Furthermore, voxel values from tumor ROIs were used to generate histograms for substance diffusion over time in the tumor region.
Note that the first point in each plot represents the percentage of voxels with radioactivity concentrations lower than 1.6 %ID/g. These voxels are considered empty, meaning that the corresponding tumor region is non-radioactive.

[4] = Ex vivo well counting of tumor and organs; details: ex vivo after the 24-hour scan, mean ± SEM
Procedure: After the completion of PET/CT imaging, mice were sacrificed and tumor, spleen, and liver tissue were collected and well counted (Wizard, Perkin Elmer, US). Tissue radioactivity was recorded and corrected for isotope decay and well counter efficiency. Final results are presented in %ID/organ calculated from activity and the tissue weight.

[5] = Tumor retention and biodistribution by PET/CT after intratumoral injection; details: mean ± SEM; for Absolute retention of radioactivity in tumors: PET; for tumor retention: CT26 tumor, PET/CT
Procedure: CT26 wildtype cells (murine colon carcinoma, ATCC, Virginia, US) were cultured RPMI (Roswell Park Memorial Institute) medium supplemented with 10 % heat-inactivated Fetal Calf Serum (FCS) and 1 % Penicillin-Streptomycin (Invitrogen, Carlsbad, CA., US) retained in 5 % CO2 incubator at 37 °C. Immunocompetent female Balb/C mice (Charles River, Wilmington, MA., USA) were inoculated with tumor cells after one week of adaptation. All 20 mice included were inoculated subcutaneously with 3 x 10^5 CT26 wildtype cells in 100 µL medium on the right flank and hereafter monitored for weight and tumor size continuously for study purposes and to monitor the health of the mice. Tumor sizes were calculated from the formula of 0.52 x lenght^2 x width, as measured by external caliper. Animals were included in the study when tumors were approximately 400 mm^3.
as §2, §3

[6] = Partitioning of radiolabeled surfactant into liposomes (SEC, PD-10); format: physicochemical; details: 37 °C, 60 min, for D3R-C18 at lipid 0.36 and 0.72 mM
Procedure: Three different liposomes types were prepared: (1) POPC only, (2) POPC-POPG (9:1), (3) commercially available stealth lipid mixture (see above). POPC or the POPC-POPG mixture was freeze- dried from tert-butanol:water (9:1). The resulting lyophilizate or the stealth lipid mixture (187.5 mg) was then hydrated with ISO-HEPES-NaCl (5.0 mL) at 65 ℃ for 60 minutes by magnetic stirring. This was followed by sizing through a mini-extruder with a cut-off size of 100 nm. Size, PDI and zeta potential of all three preparations were measured (Table 1). The liposomes were diluted to lipid concentrations of 0.4, 1.0 and 4.0 mM for partitioning studies.
A dispersion of ^64Cu-D3R-C16 (200 μM) in ISO-HEPES-NaCl (100 µL) was added to POPC liposomes (900 µL, 0.4 mM). The resulting mixture was magnetically stirred at 37 ℃. Mixtures were separated by size-exclusion chromatography (SEC) at 10, 30, 60, 120 and 180 minutes after addition. An aliquot (100 µL) was applied to a PD-10 cartridge and eluted with ISO-HEPES-NaCl. […] The radioactivities of the two collected fractions and the column were measured by dose calibrator. […] The partitioning of the radiolabeled constructs into liposomes was calculated as the ratio of the radioactivity in the liposomal fraction to the total radioactivity of the liposomal fraction plus the column. […] The mixtures were analyzed by SEC by applying 200 µL to a PD-10 cartridge (see above). […]

[7] = in ISO-HEPES-NaCl (10 mM HEPES, 150 mM NaCl, pH 7.4)
[8] = in ISO-HEPES-Sucrose (10 mM HEPES, 300 mM sucrose, pH 7.4)
[9] = 5 minutes after the start of the PET scan
[10] = 12 minutes post intratumoral injection, 40 MBq/mL

non-radioactive voxels in tumor (<1.6 %ID/g) [3, 9] | Accumulation of radioactivity in liver [4] | Accumulation of radioactivity in spleen [4] | Accumulation of radioactivity in tumor [4] | Absolute retention of radioactivity in tumors ([5]; 0.25 min) | Absolute retention of radioactivity in tumors ([5]; 0.75 min) | Absolute retention of radioactivity in tumors ([5]; 1.25 min) | Absolute retention of radioactivity in tumors ([5]; 1.75 min) | Absolute retention of radioactivity in tumors ([5]; 2.5 min) | Absolute retention of radioactivity in tumors ([5]; 3.5 min) | Absolute retention of radioactivity in tumors ([5]; 4.5 min) | Absolute retention of radioactivity in tumors ([5]; 5.5 min) | Absolute retention of radioactivity in tumors ([5]; 6.5 min) | Absolute retention of radioactivity in tumors ([5]; 7.5 min) | Absolute retention of radioactivity in tumors ([5]; 8.5 min) | Structure (SMILES) | median lethal concentration (LC50) (CT26 cells) | CMC [1, 7] | CMC [1, 8] | PDI of micelles [2] | average size of micelles (Z-average) [2] | further results
– | – | – | – | – | – | – | – | – | – | – | – | – | – | – | CCCCCCCCCCCCCCCCCC(=O)N[C@@H](CCCNC(=N)N)C(=O)N[C@@H](CCCNC(=N)N)C(=O)N[C@@H](CCCNC(=N)N)C(=O)N[C@@H](CCCCNC(=O)CN1CCN(CC(=O)O)CCN(CC(=O)O)CCN(CC(=O)O)CC1)C(N)=O [D3R-C18] (Stearoyl-RRRK(DOTA)-NH2) | above 100 µM | about 10 µM | above 100 µM | 0.3 | 10 nm | zeta potential of micelles ([2]; 2.0 mM micellar dispersion in ISO-HEPES-Sucrose, Zetasizer): 20.7 ± 0.5 mV
less than 10% | 14 ± 1 ID%/g | 2 ± 0.6 ID%/g | 11 ± 3 ID%/g | 97 ± 19 %ID/g | 167 ± 50 %ID/g | 164 ± 53 %ID/g | 162 ± 54 %ID/g | 159 ± 53 %ID/g | 156 ± 54 %ID/g | 154 ± 53 %ID/g | 152 ± 53 %ID/g | 150 ± 53 %ID/g | 148 ± 52 %ID/g | 146 ± 52 %ID/g | [Cl][64Cu][Cl] [Free 64CuCl2] | – | – | – | – | – | Absolute retention of radioactivity in tumors ([5]; 9.5 min): 145 ± 53 %ID/g; Absolute retention of radioactivity in tumors ([5]; 10.5 min): 143 ± 52 %ID/g; Absolute retention of radioactivity in tumors ([5]; 11.5 min): 142 ± 51 %ID/g; tumor retention [5, 10]: 45 ± 5 %ID/tumor; Absolute retention of radioactivity in tumors ([5]; 6 h): 18 ± 3 %ID/g; Absolute retention of radioactivity in tumors ([5]; 24 h): 10 ± 1 %ID/g
less than 10% | 1 ± 0.2 ID%/g | 0.3 ± 0.05 ID%/g | 1 ± 0.3 ID%/g | 78 ± 37 %ID/g | 130 ± 13 %ID/g | 127 ± 14 %ID/g | 123 ± 14 %ID/g | 120 ± 14 %ID/g | 115 ± 14 %ID/g | 111 ± 14 %ID/g | 108 ± 14 %ID/g | 105 ± 14 %ID/g | 102 ±14 %ID/g | 100 ± 14 %ID/g | O=C([O-])CN1CCN(CC(=O)[O-])CCN(CC(=O)O)CCN(CC(=O)O)CC1.[64Cu+2] [64Cu-DOTA] | – | – | – | – | – | non-radioactive voxels in tumor (<1.6 %ID/g) ([3]; 6 h): More than 40%; Absolute retention of radioactivity in tumors ([5]; 9.5 min): 97 ± 13 %ID/g; Absolute retention of radioactivity in tumors ([5]; 10.5 min): 94 ± 13 %ID/g; Absolute retention of radioactivity in tumors ([5]; 11.5 min): 92 ± 12 %ID/g; tumor retention [5, 10]: 52 ± 4 %ID/tumor; Absolute retention of radioactivity in tumors ([5]; 6 h): 4 ± 1 %ID/g; tumor retention ([5]; 6 hours post intratumoral injection): 2.4 ± 0.7 %ID/tumor; Absolute retention of radioactivity in tumors ([5]; 24 h): 2 ± 0.8 %ID/g; tumor retention ([5]; 24 hours post intratumoral injection): 1.4 ± 0.4 %ID/tumor
– | – | – | – | – | – | – | – | – | – | – | – | – | – | – | CCCCCCCCCCCCCCCC(=O)N[C@@H](CCCNC(=N)N)C(=O)N[C@@H](CCCNC(=N)N)C(=O)N[C@@H](CCCNC(=N)N)C(=O)N[C@@H](CCCCNC(=O)CN1CCN(CC(=O)O)CCN(CC(=O)O)CCN(CC(=O)O)CC1)C(N)=O [D3R-C16] (Palmitoyl-RRRK(DOTA)-NH2) | above 100 µM | about 40 µM | above 100 µM | 0.3 | 10 nm | stealth liposome partitioning, 177Lu label compared with 64Cu label [6]: no significant difference
